For the data set, the system named is ATRX null/ALT+ osteosarcoma cell line SAOS2. Kind of data set: Cell viability by CellTiter-Glo after siRNA delivery. As to conditions: compared to negative control siRNA, FIG. 3. The data set is classed as cell-based. How it is done:
Procedure: SAOS2 cell line was seeded in 100 μL of media in 96-well plates (Corning 3904) excluding edge wells at the following density of 10000 cells per well. SOAS2 cells were seeded the day prior to transduction. Custom Stealth siRNA and Negative Control siRNA were ordered from ThermoFisher. The procedure for siRNA delivery was conducted based on the manufacturer's recommendation. The SMARCAL1 targeting siRNA sequence is: […] (SEQ ID NO: 356).
Cell viability was assayed using CellTiter-Glo (Promega G7572) at 100 μL per well. Luminescence was read using PerkinElmer EnVision 2105. Values were normalized to the average values from the negative control sgRNAs. Experiments were performed three times. Shown are the triplicate results of one representative experiment. Two tailed, type 3 Student's t-test was performed to determine statistical significance, which was conducted on Microsoft Excel (Microsoft).
A general note: In ATP-based viability assays light output follows the ATP content of the culture.

“UUUCACAGAGAAAUGCUUAUGCAGG (siRNA; commercial Stealth siRNA, chemistry not given here, further chemistry not given here; listed as Homo sapiens) [siRNA targeting SMARCAL-1, Custom Stealth siRNA targeting SMARCAL1, ordered from ThermoFisher]”: the cell viability entry was “decreased viability”.

Values taken from patent US20220193205A1, “METHODS OF TREATING CANCER” (Foghorn Therapeutics Inc., priority 2019, published 2022).
